Data: patent US12157741B2, “Macrocyclic inhibitors of DYRK1A” (DANA-FARBER CANCER INSTITUTE, INC., priority 2018, dated 2024)
Like-named read-outs stand apart in the source and are kept apart here.

Experiments:
various enzymes [1] = target: various enzymes (Homo sapiens, UniProt P19525); details: PRKR; 1 uM
Protocol: (§1) Ambit profiling from Eurofins (formerly Discoverx) was conducted in accordance with the manufacturer's instructions.

various enzymes [2] = target: various enzymes (Homo sapiens, UniProt P41240); details: CSK; 1 uM
Protocol: as §1

various enzymes [3] = target: various enzymes (Homo sapiens, UniProt Q16539); details: p38-alpha; 1 uM
Protocol: as §1

various enzymes [4] = target: various enzymes (Homo sapiens, UniProt P08581, Y1235D)
Protocol: as §1

various enzymes [5] = target: T1, various enzymes (Homo sapiens, UniProt Q96L34); details: MARK4; 1 uM
T1 sequence (Q96L34 1-752): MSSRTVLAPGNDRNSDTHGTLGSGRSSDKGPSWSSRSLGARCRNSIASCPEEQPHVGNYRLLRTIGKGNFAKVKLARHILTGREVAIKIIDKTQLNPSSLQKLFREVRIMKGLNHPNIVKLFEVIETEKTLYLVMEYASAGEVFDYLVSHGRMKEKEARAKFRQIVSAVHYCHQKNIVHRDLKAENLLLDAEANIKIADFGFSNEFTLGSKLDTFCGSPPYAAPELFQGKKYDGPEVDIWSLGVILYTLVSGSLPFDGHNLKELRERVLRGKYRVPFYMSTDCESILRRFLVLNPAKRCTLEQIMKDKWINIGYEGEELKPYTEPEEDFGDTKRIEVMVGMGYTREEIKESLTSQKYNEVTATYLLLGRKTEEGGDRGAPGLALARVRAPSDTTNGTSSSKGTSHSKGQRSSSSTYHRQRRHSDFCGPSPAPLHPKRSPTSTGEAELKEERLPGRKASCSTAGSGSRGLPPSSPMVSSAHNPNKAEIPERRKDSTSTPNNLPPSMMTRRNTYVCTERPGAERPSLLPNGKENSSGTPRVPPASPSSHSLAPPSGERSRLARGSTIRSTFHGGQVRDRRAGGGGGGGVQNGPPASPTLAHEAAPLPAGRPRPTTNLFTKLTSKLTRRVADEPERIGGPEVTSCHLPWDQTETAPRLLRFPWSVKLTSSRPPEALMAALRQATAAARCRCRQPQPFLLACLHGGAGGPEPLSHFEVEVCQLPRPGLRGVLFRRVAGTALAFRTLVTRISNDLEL
Protocol: as §1

various enzymes [6] = target: T2, various enzymes (Homo sapiens, UniProt O43283); details: LZK; 1 uM
T2 sequence (O43283 1-966): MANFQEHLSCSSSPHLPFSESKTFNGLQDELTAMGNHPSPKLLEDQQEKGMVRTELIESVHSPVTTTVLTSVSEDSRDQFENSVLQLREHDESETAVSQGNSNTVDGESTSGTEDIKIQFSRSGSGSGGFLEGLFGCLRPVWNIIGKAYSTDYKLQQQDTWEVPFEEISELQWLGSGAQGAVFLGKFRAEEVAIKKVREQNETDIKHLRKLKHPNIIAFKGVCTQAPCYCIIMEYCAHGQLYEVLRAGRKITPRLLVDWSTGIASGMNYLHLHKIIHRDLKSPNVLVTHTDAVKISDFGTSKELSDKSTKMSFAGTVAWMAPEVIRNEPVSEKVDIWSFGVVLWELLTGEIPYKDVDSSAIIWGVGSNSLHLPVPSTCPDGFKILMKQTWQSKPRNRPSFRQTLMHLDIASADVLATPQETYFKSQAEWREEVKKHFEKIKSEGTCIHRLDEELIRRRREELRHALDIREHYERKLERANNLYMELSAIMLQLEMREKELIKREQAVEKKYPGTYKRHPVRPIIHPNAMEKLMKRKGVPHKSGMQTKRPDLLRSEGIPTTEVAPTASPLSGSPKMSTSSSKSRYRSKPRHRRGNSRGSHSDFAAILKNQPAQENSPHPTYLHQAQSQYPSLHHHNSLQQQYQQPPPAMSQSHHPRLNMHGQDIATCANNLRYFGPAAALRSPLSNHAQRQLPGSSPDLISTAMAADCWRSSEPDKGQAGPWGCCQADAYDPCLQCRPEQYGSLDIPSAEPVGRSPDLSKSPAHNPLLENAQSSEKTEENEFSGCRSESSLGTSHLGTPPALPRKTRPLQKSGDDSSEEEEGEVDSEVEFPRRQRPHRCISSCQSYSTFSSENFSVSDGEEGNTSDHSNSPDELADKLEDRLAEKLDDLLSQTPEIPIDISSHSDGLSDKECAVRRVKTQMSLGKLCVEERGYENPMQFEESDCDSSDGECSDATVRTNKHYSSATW
Protocol: as §1

various enzymes [7] = target: T3, various enzymes (Homo sapiens, UniProt Q99640); details: PKMYT1; 1 uM
T3 sequence (Q99640 1-499): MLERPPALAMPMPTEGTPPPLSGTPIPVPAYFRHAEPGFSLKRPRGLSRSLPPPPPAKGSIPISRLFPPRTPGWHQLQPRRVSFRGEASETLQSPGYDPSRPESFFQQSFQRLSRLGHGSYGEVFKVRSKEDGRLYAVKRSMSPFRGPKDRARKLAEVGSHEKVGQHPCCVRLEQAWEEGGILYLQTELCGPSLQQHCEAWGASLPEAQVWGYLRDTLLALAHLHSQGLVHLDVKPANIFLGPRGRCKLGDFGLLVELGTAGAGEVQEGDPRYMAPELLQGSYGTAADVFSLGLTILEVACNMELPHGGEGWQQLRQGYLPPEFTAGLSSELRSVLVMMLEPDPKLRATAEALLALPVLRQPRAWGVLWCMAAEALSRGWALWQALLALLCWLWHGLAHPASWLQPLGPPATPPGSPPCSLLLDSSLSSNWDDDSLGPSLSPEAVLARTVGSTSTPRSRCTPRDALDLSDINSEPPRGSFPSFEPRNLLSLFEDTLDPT
Protocol: as §1

various enzymes [8] = target: various enzymes (Homo sapiens, UniProt Q14004); details: CDC2L5; 1 uM
Protocol: as §1

various enzymes [9] = target: various enzymes (Homo sapiens, UniProt O60331); details: PIP5K1C; 1 uM
Protocol: as §1

various enzymes [10] = target: various enzymes (Homo sapiens, UniProt Q00526); details: CDK3; 1 uM
Protocol: as §1

various enzymes [11] = target: various enzymes (Homo sapiens, UniProt P00533, DEL746-750); details: EGFR(E746-A750del); 1 uM
Protocol: as §1

various enzymes [12] = target: various enzymes (Homo sapiens, UniProt P00533, DELINS747-751S); details: EGFR(L747-T751del, Sins); 1 uM
Protocol: as §1

Sequence of various enzymes (Homo sapiens, UniProt Q16539) (Q16539 whole entry): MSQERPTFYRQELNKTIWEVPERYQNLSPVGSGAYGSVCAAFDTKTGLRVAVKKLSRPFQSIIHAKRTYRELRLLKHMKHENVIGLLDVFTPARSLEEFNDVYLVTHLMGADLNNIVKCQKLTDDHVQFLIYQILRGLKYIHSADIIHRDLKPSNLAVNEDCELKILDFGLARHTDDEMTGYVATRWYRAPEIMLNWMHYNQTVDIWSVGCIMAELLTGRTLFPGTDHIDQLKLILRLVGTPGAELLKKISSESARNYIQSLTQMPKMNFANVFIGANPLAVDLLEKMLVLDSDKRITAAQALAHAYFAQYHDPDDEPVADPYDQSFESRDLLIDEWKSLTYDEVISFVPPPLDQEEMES
Sequence of various enzymes (Homo sapiens, UniProt Q14004) (Q14004 whole entry): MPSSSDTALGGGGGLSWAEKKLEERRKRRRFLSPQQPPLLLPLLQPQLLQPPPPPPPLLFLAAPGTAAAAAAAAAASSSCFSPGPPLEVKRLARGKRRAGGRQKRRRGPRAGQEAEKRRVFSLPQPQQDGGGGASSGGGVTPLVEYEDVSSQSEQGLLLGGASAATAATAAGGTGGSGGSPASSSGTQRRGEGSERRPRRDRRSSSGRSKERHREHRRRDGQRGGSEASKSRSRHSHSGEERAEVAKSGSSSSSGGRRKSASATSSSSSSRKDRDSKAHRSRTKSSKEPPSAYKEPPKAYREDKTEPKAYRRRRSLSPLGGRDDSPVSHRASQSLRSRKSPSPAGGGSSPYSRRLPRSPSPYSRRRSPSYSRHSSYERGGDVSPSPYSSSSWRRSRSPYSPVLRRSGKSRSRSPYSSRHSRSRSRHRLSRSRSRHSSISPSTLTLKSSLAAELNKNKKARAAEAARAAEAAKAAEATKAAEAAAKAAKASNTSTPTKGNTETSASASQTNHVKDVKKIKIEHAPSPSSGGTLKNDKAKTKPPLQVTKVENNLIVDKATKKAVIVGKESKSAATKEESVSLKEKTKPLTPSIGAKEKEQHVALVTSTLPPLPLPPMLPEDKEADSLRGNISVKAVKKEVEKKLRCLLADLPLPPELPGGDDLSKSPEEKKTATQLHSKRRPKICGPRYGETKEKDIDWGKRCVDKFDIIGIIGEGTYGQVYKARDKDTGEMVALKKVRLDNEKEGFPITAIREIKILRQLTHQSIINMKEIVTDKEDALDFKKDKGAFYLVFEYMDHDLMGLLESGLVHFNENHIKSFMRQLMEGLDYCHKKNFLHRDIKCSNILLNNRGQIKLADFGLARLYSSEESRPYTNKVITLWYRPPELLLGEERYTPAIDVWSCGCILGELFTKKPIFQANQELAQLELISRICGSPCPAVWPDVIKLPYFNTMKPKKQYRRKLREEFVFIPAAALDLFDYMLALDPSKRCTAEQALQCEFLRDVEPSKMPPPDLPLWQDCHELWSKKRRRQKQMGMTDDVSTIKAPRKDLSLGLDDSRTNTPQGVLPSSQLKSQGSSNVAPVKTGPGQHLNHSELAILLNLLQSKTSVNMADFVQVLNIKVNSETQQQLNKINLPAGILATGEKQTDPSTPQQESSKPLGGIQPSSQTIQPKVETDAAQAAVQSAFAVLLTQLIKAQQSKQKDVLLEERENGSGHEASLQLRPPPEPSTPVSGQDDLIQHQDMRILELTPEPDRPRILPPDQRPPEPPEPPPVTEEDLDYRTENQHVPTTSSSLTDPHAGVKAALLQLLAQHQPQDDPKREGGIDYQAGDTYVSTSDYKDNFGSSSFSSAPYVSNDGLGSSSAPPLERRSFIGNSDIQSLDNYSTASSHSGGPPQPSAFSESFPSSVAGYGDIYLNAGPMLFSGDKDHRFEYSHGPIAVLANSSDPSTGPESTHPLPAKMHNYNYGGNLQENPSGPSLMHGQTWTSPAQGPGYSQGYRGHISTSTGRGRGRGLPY
Sequence of various enzymes (Homo sapiens, UniProt P19525) (P19525 whole entry): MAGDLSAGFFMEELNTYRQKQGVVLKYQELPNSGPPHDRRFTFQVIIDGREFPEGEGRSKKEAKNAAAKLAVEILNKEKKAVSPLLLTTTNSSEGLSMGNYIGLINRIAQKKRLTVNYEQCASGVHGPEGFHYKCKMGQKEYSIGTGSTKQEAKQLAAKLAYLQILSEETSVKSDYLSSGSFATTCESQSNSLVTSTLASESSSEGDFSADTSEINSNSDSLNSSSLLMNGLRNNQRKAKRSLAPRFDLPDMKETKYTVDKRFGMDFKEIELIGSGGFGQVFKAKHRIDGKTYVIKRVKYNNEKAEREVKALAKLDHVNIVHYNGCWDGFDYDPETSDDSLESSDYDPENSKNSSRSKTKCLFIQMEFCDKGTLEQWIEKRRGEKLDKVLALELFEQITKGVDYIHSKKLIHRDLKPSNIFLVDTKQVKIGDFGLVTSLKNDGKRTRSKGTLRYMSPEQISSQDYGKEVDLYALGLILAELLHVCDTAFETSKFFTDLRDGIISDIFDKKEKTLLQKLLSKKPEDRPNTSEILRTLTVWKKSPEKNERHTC
Sequence of various enzymes (Homo sapiens, UniProt O60331) (O60331 whole entry): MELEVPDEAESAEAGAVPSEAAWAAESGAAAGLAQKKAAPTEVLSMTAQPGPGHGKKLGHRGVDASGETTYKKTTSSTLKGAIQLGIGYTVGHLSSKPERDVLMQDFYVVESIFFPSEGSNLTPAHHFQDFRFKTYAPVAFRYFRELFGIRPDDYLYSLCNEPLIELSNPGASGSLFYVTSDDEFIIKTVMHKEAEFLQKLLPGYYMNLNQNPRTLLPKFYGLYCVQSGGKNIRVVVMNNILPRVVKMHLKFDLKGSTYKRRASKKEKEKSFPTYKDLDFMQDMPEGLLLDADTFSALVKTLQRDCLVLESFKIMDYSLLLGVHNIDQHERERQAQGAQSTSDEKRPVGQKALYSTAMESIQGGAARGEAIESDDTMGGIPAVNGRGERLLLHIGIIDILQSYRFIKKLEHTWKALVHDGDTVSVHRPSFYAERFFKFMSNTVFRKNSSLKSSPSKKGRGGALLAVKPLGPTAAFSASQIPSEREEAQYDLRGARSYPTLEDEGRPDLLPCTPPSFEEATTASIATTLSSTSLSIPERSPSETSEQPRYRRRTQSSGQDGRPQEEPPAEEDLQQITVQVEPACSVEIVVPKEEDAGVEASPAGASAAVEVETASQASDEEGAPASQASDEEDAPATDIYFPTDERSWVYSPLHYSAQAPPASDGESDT
Sequence of various enzymes (Homo sapiens, UniProt Q00526) (Q00526 whole entry): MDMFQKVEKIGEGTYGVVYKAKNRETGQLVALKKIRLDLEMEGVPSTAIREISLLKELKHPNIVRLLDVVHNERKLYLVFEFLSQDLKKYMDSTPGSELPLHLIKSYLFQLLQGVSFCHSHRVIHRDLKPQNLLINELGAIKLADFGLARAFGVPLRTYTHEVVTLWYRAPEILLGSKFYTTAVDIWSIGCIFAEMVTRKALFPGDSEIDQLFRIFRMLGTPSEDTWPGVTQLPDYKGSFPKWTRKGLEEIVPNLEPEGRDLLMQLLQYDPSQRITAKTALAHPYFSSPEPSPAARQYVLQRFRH
Sequence of various enzymes (Homo sapiens, UniProt P41240) (P41240 whole entry): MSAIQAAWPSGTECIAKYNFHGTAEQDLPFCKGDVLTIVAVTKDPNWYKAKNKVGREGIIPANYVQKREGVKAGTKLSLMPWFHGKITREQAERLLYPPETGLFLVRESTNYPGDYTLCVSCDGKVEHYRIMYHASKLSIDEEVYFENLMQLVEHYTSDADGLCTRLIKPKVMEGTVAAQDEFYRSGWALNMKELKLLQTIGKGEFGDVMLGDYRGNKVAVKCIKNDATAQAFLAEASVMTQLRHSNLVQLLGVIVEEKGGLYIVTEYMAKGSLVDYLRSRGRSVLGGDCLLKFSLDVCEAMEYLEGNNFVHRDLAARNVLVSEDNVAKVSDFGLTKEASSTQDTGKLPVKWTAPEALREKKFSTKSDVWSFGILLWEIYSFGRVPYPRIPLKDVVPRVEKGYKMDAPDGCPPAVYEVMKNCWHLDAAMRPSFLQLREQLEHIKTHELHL

Q: With `CN1Cc2nn(C)cc2-c2cnc3[nH]cc(c3c2)-c2cnn(c2)CCCC1=O` [Compound 41, (Z)-31,5-dimethyl-11H,21H,31H-5-aza-2(3,5)-pyrrolo[2,3-b]pyridina-1(4,1),3(4,3)-dipyrazolacyclononaphan-6-one] as the compound, how does the Ambit profiling (various enzymes [1]) read?
A: 9.2

Q: What about the Ambit profiling (various enzymes [2]) of the same compound?
A: 63

Q: And the Ambit profiling (various enzymes [3])?
A: 99

Q: And the Ambit profiling (various enzymes [4]; MET(Y12350), 1 uM)?
A: 44

Q: And the Ambit profiling (various enzymes [5])?
A: 27

Q: And the Ambit profiling (various enzymes [6])?
A: 11

Q: And the Ambit profiling (various enzymes [7])?
A: 64

Q: What about the Ambit profiling (various enzymes [8]) of the same compound?
A: 100

Q: And the Ambit profiling (various enzymes [9])?
A: 20

Q: And the Ambit profiling (various enzymes [10])?
A: 50

Q: What about the Ambit profiling (various enzymes [11]) of the same compound?
A: 100

Q: What about the Ambit profiling (various enzymes [12]) of the same compound?
A: 100

Q: Which results are given for `CN1Cc2nn(C)c(C#N)c2-c2cnc3[nH]cc(c3c2)-c2cn(nc2C(F)(F)F)CCCC1=O` [Compound 48, (Z)-31,5-dimethyl-6-oxo-13-(trifluoromethyl)-11H,21H,31H-5-aza-2(3,5)-pyrrolo[2,3-b]pyridina-1(4,1),3(4,3)-dipyrazolacyclononaphane-35-carbonitrile]?
A: Ambit profiling (various enzymes [1]): 100; Ambit profiling (various enzymes [2]): 95; Ambit profiling (various enzymes [3]): 95; Ambit profiling (various enzymes [4]): 51; Ambit profiling (various enzymes [5]): 92; Ambit profiling (various enzymes [6]): 100; Ambit profiling (various enzymes [7]): 77; Ambit profiling (various enzymes [8]): 87; Ambit profiling (various enzymes [9]): 38; Ambit profiling (various enzymes [10]): 100; Ambit profiling (various enzymes [11]): 35; Ambit profiling (various enzymes [12]): 50
